Patent publication US12492187B2, “Factor XI activation inhibitors” (Merck Sharp & Dohme LLC, priority 2020, dated 2025)

Target: T1, Human coagulation factor (F)XI (Homo sapiens, UniProt P03951)
T1 construct: purchased Haematologic Technologies Inc. (FXI); Enzyme Research Laboratories (FXIIa) HCXI-150 (FXI); HFXIIa (FXIIa)
Test: Inhibition of FXIIa mediated activation of FXI (activation of human Factor XI to XIa by human Factor α-XIIa)
Assay type: biochemical
Conditions: human FXI pre-incubated with compound 30 min at 22° C., activation by human FXIIa 60 min, z-GPR-AFC substrate, fluorescence 405/510 nm, 4 parameter logistic fit; read-out: Inhibition of FXIIa meditated activation of FXI
Procedure: Inhibition of FXIIa Mediated Activation of FXI
Activation of Human Factor XI to XIa by Human Factor α-XIIa
Assay was performed in 50 mM HEPES, 150 mM NaCl, 5 mM CaCl2, 0.1% PEG-8000, pH 7.4 buffer in black, flat-bottom, polystyrene microplates (Corning, Cat #3573). Serial dilutions (10-point, 3.333-fold) of the test compounds delivered as 10 mM DMSO stocks were prepared in the Labcyte Echo-qualified PP 384 well microplates (Labcyte, Cat #P-05525). Human coagulation factor (F)XI (Haematologic Technologies Inc., Cat #HCXI-150, concentration 46 nM, 19.5 uL) was pre-incubated with 0.5 uL of the test compounds for 30 min at 22° C. The activation was initiated by addition of 10 uL of human coagulation factor (F)XIIa (Enzyme Research Laboratories, Cat #HFXIIa, concentration 30 nM) and reaction proceeded for 60 min at 22° C., after which it was quenched by addition of a selective inhibitor of FXIIa (Compound 54 in WO2018093695) concentration 600 uM in DMSO, 1 uL). 10 min after the quench, 29 uL of z-GPR-AFC substrate (Sigma, Cat #C0980-10MG, concentration 200 uM) was added into each well and the detection reaction proceeded for 60 min at 22° C. Fluorescence at 405/510 nm was measured in end-point mode using an Envision plate-reader (Perkin Elmer). IDBS Activity Base XE (ABase) analysis using 4 parameter logistic fit was performed to determine Minimum, Maximum, EC50, and Slope Factor for each compound.

T1 sequence (P03951 19-625): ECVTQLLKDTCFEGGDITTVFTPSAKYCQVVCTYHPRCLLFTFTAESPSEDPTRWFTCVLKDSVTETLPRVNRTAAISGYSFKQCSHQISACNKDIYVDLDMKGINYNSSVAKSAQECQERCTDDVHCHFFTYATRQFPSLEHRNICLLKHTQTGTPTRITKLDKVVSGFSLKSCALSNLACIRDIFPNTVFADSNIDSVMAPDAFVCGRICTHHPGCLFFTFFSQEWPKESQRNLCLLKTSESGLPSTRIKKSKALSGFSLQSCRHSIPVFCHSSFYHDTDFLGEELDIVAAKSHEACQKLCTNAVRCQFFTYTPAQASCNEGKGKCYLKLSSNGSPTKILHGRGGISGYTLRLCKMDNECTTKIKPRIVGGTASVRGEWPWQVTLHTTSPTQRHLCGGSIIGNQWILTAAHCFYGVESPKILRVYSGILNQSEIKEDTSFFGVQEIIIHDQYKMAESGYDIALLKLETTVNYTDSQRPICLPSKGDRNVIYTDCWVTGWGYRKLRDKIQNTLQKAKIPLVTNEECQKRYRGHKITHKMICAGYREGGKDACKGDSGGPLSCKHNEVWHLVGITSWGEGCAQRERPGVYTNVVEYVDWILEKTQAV

| EC50 [nM] | Compound |
| --- | --- |
| 54.4 | Cc1cnc(C(=O)N2CCC(C#N)(c3ccccc3)CC2)cc1C(=O)N1CCC2c3ccc(C#N)cc3OC2C1 (centres unmarked) [Example 22, 2-[2-(4-cyano-4-phenyl-piperidine-1-carbonyl)-5-methyl-pyridin-1-ium-4-carbonyl]-3,4,4a,9a-tetrahydro-1H-benzofuro[2,3-c]pyridine-7-carbonitrile; 2,2,2-trifluoroacetate] |
| 75.1 | Cc1cnc(C(=O)N2CCC(C#N)(c3ccccc3)CC2)cc1C(=O)N1CCC2c3ccc(Cl)cc3OC2C1 (centres unmarked) [Example 23, 1-[4-(7-chloro-3,4,4a,9a-tetrahydro-1H-benzofuro[2,3-c]pyridine-2-carbonyl)-5-methyl-pyridin-1-ium-2-carbonyl]-4-phenyl-piperidine-4-carbonitrile; 2,2,2-trifluoroacetate] |
| 62.2 | Cc1cnc(C(=O)N2CCC(C#N)(c3ccccc3)CC2)cc1C(=O)N1CCC2c3cc(F)c(F)cc3OC2C1 (centres unmarked) [Example 24, 1-[4-(6,7-difluoro-3,4,4a,9a-tetrahydro-1H-benzofuro[2,3-c]pyridine-2-carbonyl)-5-methyl-pyridin-1-ium-2-carbonyl]-4-phenyl-piperidine-4-carbonitrile; 2,2,2-trifluoroacetate] |
| 29.4 | CC(C)(C)C1CCN(C(=O)c2cc(C(=O)N3CCC(C#N)(c4ccccc4)CC3)ncc2C#N)CC1 [Example 25, 4-(4-tert-butylpiperidine-1-carbonyl)-6-(4-cyano-4-phenyl-piperidine-1-carbonyl)pyridin-1-ium-3-carbonitrile; 2,2,2-trifluoroacetate] |
| 105 | Cc1nc(C(=O)N2CCC(C#N)(c3ccccc3)CC2)cc(C(=O)N2CCC(N3CCC(F)(F)C3)CC2)c1C [Example 26, 1-[4-[4-(3,3-difluoropyrrolidin-1-ium-1-yl)piperidine-1-carbonyl]-5,6-dimethyl-pyridine-2-carbonyl]-4-phenyl-piperidine-4-carbonitrile; 2,2,2-trifluoroacetate] |
| 25.1 | Cc1nc(C(=O)N2CCC(C#N)(c3ccccc3)CC2)cc(C(=O)N2CCC(C(C)(C)C)CC2)c1C [Example 27, 1-[4-(4-tert-butylpiperidine-1-carbonyl)-5,6-dimethyl-pyridine-2-carbonyl] -4-phenyl-piperidine-4-carbonitrile] |
| 62.2 | Cc1nc(C(=O)N2CCC(C#N)(c3ccccc3)CC2)cc(C(=O)N2CCC(Cc3nccs3)CC2)c1C [Example 28, 1-[5,6-dimethyl-4-[4-(thiazol-2-ylmethyl)piperidine-1-carbonyl]pyridine-2-carbonyl]-4-phenyl-piperidine-4-carbonitrile] |
| 41.1 | Cc1nc(C(=O)N2CCC(C#N)(c3ccccc3)CC2)cc(C(=O)N2CCN(C3(c4ccccc4)CC3)CC2)c1C [Example 29, 1-[5,6-dimethyl-4-[4-(1-phenylcyclopropyl)piperazine-1-carbonyl]pyridine-2-carbonyl]-4-phenyl-piperidine-4-carbonitrile] |
| 47.8 | Cc1nc(C(=O)N2CCC(C#N)(c3ccccc3)CC2)cc(C(=O)N2CCC(Cc3ccccc3)CC2)c1C [Example 30, 1-[4-(4-benzylpiperidine-1-carbonyl)-5,6-dimethyl-pyridine-2-carbonyl]-4-phenyl-piperidine-4-carbonitrile] |
| 124 | Cc1nc(C(=O)N2CCC(C#N)(c3ccccc3)CC2)cc(C(=O)N2CCC(C)(c3ccccc3)CC2)c1C [Example 31, 1-[5,6-dimethyl-4-(4-methyl-4-phenyl-piperidine-1-carbonyl)pyridine-2-carbonyl]-4-phenyl-piperidine-4-carbonitrile] |
| 36.6 | Cc1nc(C(=O)N2CCC(C#N)(c3ccccc3)CC2)cc(C(=O)N2CCC(c3ccccc3)CC2)c1C [Example 32, 1-[5,6-dimethyl-4-(4-phenylpiperidine-1-carbonyl)pyridine-2-carbonyl]-4-phenyl-piperidine-4-carbonitrile] |
